# According to patent US9056923B2, “Mimetic peptides derived from collagen type IV and their use for treating angiogenesis- and lymphagiogenesis-dependent diseases” (THE JOHNS HOPKINS UNIVERSITY, priority 2010, dated 2015):
# Where two headings read alike, the source gives them in different places. Square brackets hold non-standard residues; d marks the D form. Peptide text beside a SMILES is read from it. Abu = CC[C@H](N)C(=O)O
# Experiments:
# HUVEC [1] = format: cell-based, human; details: for Activity in Adhesion: Yes/No summary, active = inhibitory potential greater than 30%
# In short: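 Adhesion of 25,000 cells per well, with or without peptide, followed by real-time electrical impedance on electrode plates over 3 hours. At least two independent replicates, each run in duplicate.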
# HUVEC [2] = experiment: HUVEC migration assay (RT-CIM); format: cell-based, human; details: for Activity in Migration: Yes/No summary, active = inhibitory potential greater than 30%
# In short: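 Real-time impedance (RT-CIM) transwell migration through fibronectin-coated (20 μg/mL) 8 μm membranes; 45,000 cells/well in serum-free medium ± peptides, fully supplemented EBM-2 as chemoattractant below. Cell index recorded over 20 h at 37 °C; ≥2 independent replicates, each in duplicate.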
# [3] = system: choroidal neovascularization; experiment: Laser-induced choroidal neovascularization model; format: in vivo, C57BL/6 mice; details: 0.1 μg into a mouse eye
# Description: The ocular laser-induced choroidal neovascularization (NV) model of wet age-related macular degeneration was used for testing. 5-6-week-old female pathogen-free C57BL/6 mice were anesthetized with ketamine hydrochloride (100 mg/kg body weight) and pupils were dilated. Laser photocoagulation (75-μm spot size, 0.1-sec duration, 120 mW) was performed in the 9, 12, and 3 o'clock positions of the posterior pole of each eye with the slit lamp delivery system of an OcuLight GL diode laser (Iridex, Mountain View, Calif.) and a handheld cover slip as a contact lens to view the retina. Production of a tissue bubble by the laser, which indicates rupture of Bruch's membrane, is an important factor in obtaining choroidal NV; therefore, only burns in which a bubble is produced are included in the study. […] At day 7 the mice that received the naked peptides were dosed again whereas the mice that received the particles were administered PBS. Intravitreous injections were done under a dissecting microscope with a Harvard Pump Microinjection System and pulled glass micropipettes. After 14 days, the mice were perfused with 1 mL of PBS containing 50 mg/mL of fluorescein-labeled dextran (2×10^6 Daltons average molecular weight; Sigma-Aldrich, St. Louis, Mo.) and choroidal flat mounts were examined by fluorescence microscopy. Images were captured with a Nikon Digital Still Camera DXM1200 (Nikon Instruments Inc., New York, N.Y.). Image analysis software (Image-Pro Plus; Media Cybernetics, Silver Spring, Md.) was used to measure the total area of choroidal NV at each rupture site with the investigator masked with respect to treatment group.
# HUVEC [4] = experiment: HUVEC tube formation assay on Matrigel; format: cell-based, human; details: for Activity in Tube formation: Yes/No summary
# In short: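 HUVEC (15,000/well) plated on polymerized Matrigel in complete media with or without peptide for 19 h at 37 °C. Tube networks imaged by microscopy, one random field per well, in triplicate wells across at least two independent experiments.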
# [5] = system: VEGF mediated retinal neovascularization; experiment: Rho/VEGF transgenic mice model of retinal neovascularization; format: in vivo; details: 0.1 μg into a mouse eye
# Description: The ocular Rho/VEGF transgenic mice model of wet age-related macular degeneration also was used to test some of the peptides. Transgenic mice in which the rhodopsin promoter drives expression of VEGF in photoreceptors have the onset of VEGF production at P7 and develop extensive NV along the outer surface of the retina by P21 (Okamoto et al., 1997; To be et al., 1998). Mice hemizygous for the transgene (n=15 for each dose) were given an intraocular injection of 1 μl of PBS containing 0.01, 0.1, or 1 μg of peptide or scramble peptide in one eye at P7 and P14 and at P21 the mice were anesthetized, perfused with fluorescein-labeled dextran, and the total area of neovascularization on the outer surface of the retina was measured on retinal flat mounts by image analysis as above.
# HUVEC [6] = format: cell-based, human; details: for Activity in Proliferation: Yes/No summary
# In short: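 HUVEC plated at 2000 cells/well overnight, then exposed to peptides in fully supplemented medium for three days. WST-1 added in serum-free EBM-2 for four hours and absorbance read at 450 nm. Percent live cells taken relative to untreated cells in complete medium with 0.2% DMSO.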
# [7] = system: microvascular endothelial cells (MEC); experiment: MEC migration assay; format: cell-based
# Description: (§1) The inhibitory potential of the peptides was measured using a real time migration assay system based on electrical impedance (RT-CIM, ACEA Biosciences, CA). CIM 16 well plates (Roche, 05665817001) are composed of a top and bottom chamber separated by a microporous (8 μm) polycarbonate membrane. The membrane was coated with fibronectin (20 μg/mL), and 45,000 cells/well in serum free media with or without peptides were added to the top compartment. Media with chemoattractant (i.e., fully supplemented EBM-2) was added to the bottom compartment of the chamber and the plate was incubated at 37° C. for 20 hours. The sensors integrated on the bottom side of the membrane monitor and continuously record changes in impedance as the cells move through the membrane. The RT-CIM technology allows for easy quantification of cell migration by monitoring the cell index derived from the measured impedances. Assays were performed in at least two independent replicates and each replicate was performed using two experimental duplicates.
# [8] = system: MDA-MB-231 breast cancer cells; experiment: MDA-MB-231 wound healing type migration assay (Oris Pro); format: cell-based
# Description: Breast cancer cells MDA-MB-231 are not suitable for the RT-CIM type experiments due to their thin elongated phenotype, thus the inhibition of migration was investigated using a wound healing type assay. This assay was performed using the Oris Pro Migration assay (Platypus Technologies, CMA 1.101). Briefly, 20,000-25,000 cells/well in full media were added to the 96 well plate containing stoppers to block migration of cells to the center region of the wells. Cells were allowed to adhere for 4 hours, after which the stoppers were removed. Cells were washed one time with PBS and fully supplemented media, with or without compound, was added to the wells. […], cells were stained with calcein AM (0.5 μg/mL) (Invitrogen, CA) and the cells that migrated to the center of the well were quantified by fluorescence intensity measured using a Victor V plate reader (Perkin Elmer) and also imaged using a Leica or Nikon microscope.
# [9] = system: lymphatic endothelial cells (LEC); experiment: LEC adhesion assay; format: cell-based
# Description: (§2) Similar to the migration assays, the inhibition activity of the peptide in cellular adhesion was assessed using the RT-CIM technology. In this case, 25,000 cells/well were plated in 16 wells E-plates (Roche, Basel Switzerland) in the presence or absence of the peptide. The adhesion was monitored over time (3 hours) by measuring changes in the electrical impedance, which is a direct measure of the cells adhering on the electrodes. […] Assays were performed in at least two independent replicates and each replicate was performed using two experimental duplicates.
# [10] = system: lymphatic endothelial cells (LEC); experiment: LEC migration assay; format: cell-based
# Description: as §1
# [11] = system: MDA-MB-231 breast cancer cells; experiment: MDA-MB-231 adhesion assay; format: cell-based
# Description: as §2
# [12] = system: microvascular endothelial cells (MEC); experiment: MEC adhesion assay; format: cell-based
# Description: as §2
# MDA-MB-231 xenograft = experiment: MDA-MB-231 orthotopic breast tumor xenograft; format: in vivo, SCID mice
# Description: For primary tumor inhibition studies, 1−2×10^6 tumor cells were injected into 4-6 wk old female SCID mice. After the tumors reached a size of 100 mm^3 the animals were randomized into groups of 10 animals each. The animals were treated with vehicle, SP2012, SP2000, or SP2024. The peptides were administered subcutaneously daily. Dosing was continued for 3 or 4 weeks and tumor sizes were measured every 3 days using calipers. The tumor volume was estimated using the formula V=a^2b/2 where a and b are the smaller and larger diameters.
# For the tumor xenograft assay, animals were housed and treated according to the approved animal protocol of the Institutional Care and Use Committee at Johns Hopkins Medical Institution (JHMI). Orthotopic breast tumors were initiated in SCID mice using MDA-MB-231 cells. 2×10^6 cells per 100 μL aliquot of single cell suspension were injected in the breast mannary fat pad. Tumors reached volumes of 75 mm^3 to 100 mm^3 in approximately 14-21 days. Mice were randomized and arranged in groups (8 mice per group) with similar tumor volumes (no statistical difference among averages) and treatment was commenced. Peptides were administered once per day intraperitoneally (i.p.) at doses of 10 mg/kg (subcutaneous delivery was also tested with certain peptides). Paclitaxel was administered at 5 mg/kg once a week, and to maintain the daily treatment regime PBS was administered on the non-treatment days. Tumors were measured every fourth day using calipers and the tumor volume was calculated using the formula V=ab^2/2, where a is the larger diameter and b is the smaller diameter.
# [13] = HUVEC, tables 5, 8-10 and text, read-out: IC50 ± 95% CI (μM), proliferation
smiles,measurement,setting,value
"CC[C@H](C)[C@H](NC(=O)[C@H](CC(N)=O)NC(=O)[C@@H](NC(=O)[C@H](Cc1ccccc1)NC(=O)[C@@H](C)NC(=O)[C@H](Cc1ccccc1)NC(=O)[C@@H]1CCCN1C(=O)[C@H](CCSC)NC(=O)[C@@H](NC(=O)[C@H](CO)NC(=O)[C@H](Cc1ccccc1)NC(=O)[C@H](CCCNC(=N)N)NC(=O)[C@H](CCCNC(=N)N)NC(=O)[C@@H](N)CC(C)C)[C@@H](C)O)[C@@H](C)CC)C(=O)N[C@@H](CC(N)=O)C(=O)N[C@@H](CC(N)=O)C(=O)N[C@H](C(=O)N[C@H](C(=O)N[C@@H](CC(N)=O)C(=O)N[C@@H](Cc1ccccc1)C(N)=O)[C@@H](C)CC)C(C)C [SP2034, LRRFSTMPFdAFININNVINF]",IC50,HUVEC [1]; 3 h,550 ± 370 nM
same,Activity in Adhesion,HUVEC [1]; HUVEC,Yes
same,Activity in Migration,HUVEC [2],Yes
same,laser-induced choroidal neovascularization,[3],inhibited laser-induced choroidal neovascularization
same,Activity in Tube formation,HUVEC [4],Yes
same,area of retinal neovascularization in the Rho/VEGF model,[5],inhibited
same,inhibition of proliferation,HUVEC [6]; HUVEC,improved by two orders of magnitude
same,Activity in Proliferation,HUVEC [6]; HUVEC,Yes
same,IC50,HUVEC [6]; [13],0.54 ± 0.19 µM
"CC[C@H](NC(=O)[C@H](Cc1ccccc1)NC(=O)[C@H](CCSC)NC(=O)[C@H](Cc1ccccc1)NC(=O)[C@@H]1CCCN1C(=O)[C@H](CCSC)NC(=O)[C@@H](NC(=O)[C@H](CO)NC(=O)[C@H](Cc1ccccc1)NC(=O)[C@H](CCCNC(=N)N)NC(=O)[C@H](CCCNC(=N)N)NC(=O)[C@@H](N)CC(C)C)[C@@H](C)O)C(=O)N[C@@H](CC(N)=O)C(=O)N[C@H](C(=O)N[C@@H](CC(N)=O)C(=O)N[C@@H](CC(N)=O)C(=O)N[C@H](C(=O)N[C@@H](CC)C(=O)N[C@@H](CC(N)=O)C(=O)N[C@@H](Cc1ccccc1)C(N)=O)C(C)C)[C@@H](C)CC [SP2012, LRRFSTMPFMFAbuNINNVAbuNF] (H-LRRFSTMPFMF[Abu]NINNV[Abu]NF-NH2; N-terminus assumed)",inhibition of migration of MEC,[7],quite active
same,inhibition of migration of MDA-MB-231 cells,[8],strong
same,Migration of MDA-MB-231 cells into the restricted area,"[8]; 50 μM and 5 μM treatments, 17 hours of incubation",statistically significant versus the control
same,Adhesion Inhibition (100 uM),"HUVEC [1]; HUVEC, 100 uM peptide",93.14%
same,Activity in Adhesion,HUVEC [1]; HUVEC,Yes
same,inhibition of adhesion of LEC,[9],strong
same,Migration Inhibition (5 uM),HUVEC [2]; 5 uM peptide,0% (5 uM)
same,Migration Inhibition (50 uM),HUVEC [2]; 50 uM peptide,68%
same,Activity in Migration,HUVEC [2],Yes
same,inhibition of migration of LEC,[10],strong
same,inhibition of adhesion of MDA-MB-231 cells,[11],strong
same,Tube formation Inhibition,HUVEC [4]; (l0 uM) printed in the cell,Complete
same,Activity in Tube formation,HUVEC [4],Yes
same,IC50,HUVEC [6],22 µM
same,Activity in Proliferation,HUVEC [6]; HUVEC,Yes
same,IC50,HUVEC [6]; [13],48.1 ± 23.1 µM
same,inhibition of adhesion of MEC,[12],quite active
same,suppression of tumor growth,"MDA-MB-231 xenograft; MDA-MB-231 xenograft in mice, 10 mg/kg daily",tumor growth was inhibited
same,microvascular density,MDA-MB-231 xenograft; after completion of the treatment at 21 days,statistically different from one another
same,MDA-MB-231 xenograft inhibition,MDA-MB-231 xenograft; mice,Active
